The source of these data is patent publication US20020103192A1, “Inhibitors of histone deacetylase” (priority 2000, published 2002).

Molecules are shown by their SMILES.

A word on the melting point: it is the temperature, or range, at which the solid turns liquid.

For `O=C(CCCCCCS(=O)(=O)c1ccc2ccccc2c1)c1ncco1` [Example 105, 7-(2-naphthylsulfonyl)-1-(1,3-oxazol-2-yl)-1-heptanone], the melting point was 75 to 76 °C. In the case of `CNC(=O)C(=O)CCCCCCS(=O)(=O)c1ccc2ccccc2c1` [Example 107, N-methyl-8-(2-naphthylsulfonyl)-2-oxooctanamide] it was 108 to 109 °C; in that of `CNC(=O)C(=O)CCCCCCSc1ccc2ccccc2c1` [Example 106, N-methyl-8-(2-naphthylsulfanyl)-2-oxooctanamide], 94 to 95 °C; in that of `CC(=O)C(=O)CCCCCCOc1ccc(-c2ccccc2)cc1` [Example 113, 9-((1,1′-biphenyl)-4-yloxy)-2,3-nonanedione], 110 to 111 °C. On to `O=C(CCCCCCSc1ccc2ccccc2c1)c1ncco1` [Example 104, 7-(2-naphthylsulfanyl)-1-(1,3-oxazol-2-yl)-1-heptanone], for which the melting point lay within 65 to 66 °C.

`O=C(CCCCCCSc1ccccc1)c1ncco1` [Example 102, 1-(1,3-oxazol-2-yl)-7-(phenylsulfanyl)-1-heptanone] came in with a melting point of 39 to 40 °C. Under `O=C(NCCCCCCC(=O)c1ncco1)c1cc2ccccc2[nH]1` [Example 110, N-(7-(1 ,3-oxazol-2-yl)-7-oxoheptyl)-1H-indole-2-carboxamide] stands 153 to 156 °C; under `O=C(NCCCCCC(=O)c1ncco1)c1cc2ccccc2[nH]1` [Example 111, N-(6-(1,3-oxazol-2-yl)-6-oxohexyl)-1H-indole-2-carboxamide], 176 to 179 °C. In the case of `O=C(CCCCCCS(=O)(=O)c1ccccc1)c1ncco1` [Example 103, 1-(1,3-oxazol-2-yl)-7-(phenylsulfonyl)-1-heptanone] it was 55 to 56 °C. In the case of `CNC(=O)C(=O)CCCCCCSc1ccc(-c2ccccc2)cc1` [Example 108, 8-((1,1′-biphenyl)-4-ylsulfanyl)-N-methyl-2-oxooctanamide] it was 131 to 132 °C.
